# From publication PMC8614864, “Bioengineered System for High Throughput Screening of Kv1 Ion Channel Blockers” (Bioengineering, 2021)
# Where a chain is given by its changes, count along the chain named. Where two headings read alike, the source gives them in different places. Ends that are not written are not given here. linker L1 (45 aa) = not defined here
# T1: KcsA-Kv1.3 hybrid potassium channel tagged with a red fluorescent protein (TagRFP) (Homotetramer. Turret swap limits are not printed: taken from the known KcsA-Kv1.3 chimera design (ref. 8), KcsA 52-64 replaced by the gap-free aligned Kv1.3 segment (the same stretch is expected in mo))
# T1 chain: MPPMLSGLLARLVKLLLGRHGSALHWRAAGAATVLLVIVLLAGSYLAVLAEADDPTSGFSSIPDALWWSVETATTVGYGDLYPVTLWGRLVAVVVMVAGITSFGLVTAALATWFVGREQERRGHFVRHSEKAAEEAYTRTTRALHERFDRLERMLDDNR
# B1: agitoxin 2 tagged N-terminally with eGFP (ligand)
# chain: GVPINVSCTGSPQCIKPCKDAGMRFGKCMNRKCHCTPK
# notes: The analogous ChTx-GFP was purified on Ni-NTA, so a His tag is likely here too; also called AgTx2-GFP; AgTx-GFP; source: design and production described earlier [14]; (plasmid pET23d-GFP-L1-AgTx2); not shown: eGFP (with the 45-aa linker L1), N-terminal, kept
# B2: agitoxin 2 (peptide)
# chain: B1 chain
# notes: also called AgTx2; source: recombinant, produced as described earlier [12] from plasmid pET23d-MalE-L1-AgTx2
# B3: kaliotoxin 1 (peptide)
# chain: B1 chain with P3E, S7K, T9S, I15L
# notes: also called KTx; source: recombinant, produced as described earlier [12] from plasmid pET23d-MalE-L1-KTx
# B4: charybdotoxin tagged N-terminally with eGFP (ligand)
# chain: QFTNVSCTTSKECWSVCQRLHNTSRGKCMNKKCRCYS
# notes: also called ChTx-GFP; GFP-L1-ChTx; source: E. coli Rosetta-gami (DE3) pLysS, pET23d-GFP-L1-ChTx, purified (Ni-NTA, PD-10 desalting); not shown: eGFP (with the linker L1), N-terminal, kept
# Experiments:
# Kv1 channels = conditions: ref 17; cited from earlier work
# Excerpt: Consequently, our flow cytometry approach can be used to screen unlabeled small organic blockers for their binding with the external lining of the pore. If necessary, FP-peptide blockers can be substituted in the presented assay by small fluorescently labeled ligands, and their affinities can be estimated by direct titration, using the approach ...
# Kv1.3 = conditions: cited from earlier work
# Experimental: Table 1 Kd values obtained by direct titration of GFP-toxins or by their displacement with unlabeled ones and their comparison to our previous and literature data. | column: Kd or IC50, nM / Literature Data || Our approach was evaluated using several Kv1.3 ligands with known dissociation constants. These are unlabeled recombinant channel blockers from scorpion venom, AgTx2, ChTx, KTx and labeled GFP-tagged chimeras AgTx-GFP and ChTx-GFP. […] This is close to the values reported earlier: 0.21 nM for AgTx2-GFP in our system and 1.8–2.6 nM for ChTx (Table 1).
# KcsA-Kv1.3 = conditions: ref Our Previous Data (Table 1); cited from earlier work
# Experimental: Table 1 Kd values obtained by direct titration of GFP-toxins or by their displacement with unlabeled ones and their comparison to our previous and literature data. | column: Dissociation Constants, nM * / Our Previous Data || Our approach was evaluated using several Kv1.3 ligands with known dissociation constants. These are unlabeled recombinant channel blockers from scorpion venom, AgTx2, ChTx, KTx and labeled GFP-tagged chimeras AgTx-GFP and ChTx-GFP. […] This is close to the values reported earlier: 0.21 nM for AgTx2-GFP in our system and 1.8–2.6 nM for ChTx (Table 1).
# KcsA-Kv1.3-RFP [1] = assay: Displacement of GFP-labeled toxins by unlabeled toxins on spheroplasts, flow cytometry; assay type: binding; conditions: for Kd: displacement of AgTx2-GFP, Cheng-Prusoff, Mean ± SD, read-out: Apparent dissociation constant (Kap)
# Experimental: (§1) Spheroplasts were prepared according to the previously developed protocol. Briefly, E. coli cells (BL21 (DE3) strain) transformed with pET28a-KcsA-Kv1.3-RFP plasmid were cultivated in a minimal M9 medium at 37 °C up to OD560 = 0.8, then induced with 50 μM IPTG and further grown for 18 h. Cells were harvested by centrifugation (5000× g, 10 min, 4 °C), incubated in buffer A (10 mM Tris–HCl, pH 8.0, 0.5 m sucrose) containing lysozyme (20 μg/mL) for 7 min on ice, then diluted twofold with buffer B (10 mM Tris–HCl, pH 8.0, 0.3 mM ethylenediamine tetraacetic acid) and further incubated for 20 min. Then MgCl2 was added to a final concentration of 10 mM to stabilize the spheroplasts. Obtained in this way, the spheroplast suspension has OD560 of about 0.5 and was diluted for binding assay as described further.
# (§2) For ligand binding analysis, a series of ligand dilutions were prepared in 12 × 75 mm flow cytometry test tubes. For this, 45 µL of toxin solution with a ten times higher concentration than the maximal concentration on titration curve was prepared. This solution was serially diluted with 3.16-fold step (13.9 µL of toxin solution + 30 µL buffer). These toxin dilutions were supplemented with 270 µL of spheroplast suspension at 10^6 cells/mL to give 300 µL final reaction mixtures. For analysis of displacement of GFP-labeled toxins by unlabeled toxins, spheroplast suspensions were supplemented with 1.1× concentration of GFP-labeled toxin before mixing with unlabeled toxin dilutions. All dilutions were made in a binding buffer: 0.25 M sucrose, […], 2 mM KCl, 50 mM NaCl, 10 mM MgCl2, 0.2% BSA and 50 mM Tris–HCl, pH 7.5.
# (§3) To ensure equilibrium conditions, we analyzed samples after 90–120 min of incubation without removing toxins. Data acquisition was carried out with FC-500 flow cytometer (Beckman Coulter, Brea, CA, USA) using 488 nm excitation for both GFP and RFP and fluorescence detection with FL1 (505–545 nm) and FL3 (610–630 nm) channels for GFP and RFP, respectively. To minimize background fluorescence, samples were run at low speed that gave approx. 100–500 events/s. Events were triggered by side scatting (SSC) so that RFP-labeled cells constituted approx. 30% of events (Figure 2). Remaining events were also present in the samples of filtered binding buffer without cells, so were likely to be related to system noise (either electronic or optical) but not to the dim spheroplasts.
# (§4) Automated data analysis was performed by a dedicated script after pre-processing with commercial software. The script was available in user-friendly Jupyter notebook format where data were processed stepwise, and user input-output was realized through an internet browser. This script is designed to process multiple datasets at once and can be easily adjusted for someone’s actual needs.
# Initial preprocessing was done with used FlowJo v10 software (Treestar Inc., Wilmington, DE, USA). This was used for gating on cells by forward and side scatter, followed by gating of RFP-positive events (Figure 1) and exporting of gated data in FCS format. This step was preferable since it allowed one to convert data into a conventional FCS format (our flow cytometer import data in LMD file format) and to filter out off-target events such as system noise, cell debris, clumped and untransfected cells (without Kv1.3-RFP in our case). We also created a script for this preprocessing but found it more complicated and less robust than commercial software. […]
# KcsA-Kv1.3-RFP [2] = assay: Direct titration of GFP-labeled toxins on spheroplasts by flow cytometry; assay type: binding
# Experimental: as §1, §2, §3, §4
# Initial preprocessing was done with used FlowJo v10 software (Treestar Inc., Wilmington, DE, USA). This was used for gating on cells by forward and side scatter, followed by gating of RFP-positive events (Figure 1) and exporting of gated data in FCS format. This step was preferable since it allowed one to convert data into a conventional FCS format (our flow cytometer import data in LMD file format) and to filter out off-target events such as system noise, cell debris, clumped and untransfected cells (without Kv1.3-RFP in our case). We also created a script for this preprocessing but found it more complicated and less robust than commercial software.
# Filtered data were processed stepwise by a dedicated script, written in the Python programming language and available as a Jupyter notebook for running either on a local machine or in a kaggle data cloud (https://www.kaggle.com/georgesharonov/fcsgroupfit, accessed and executed on 14 November 2021). Data processing workflow was designed for high throughput analysis by processing all similar data in a single script execution. The processing steps were detailed within the notebook. […]
# [3] = target: T1, KcsA-Kv1.3 hybrid potassium channel …; assay: flow cytometry on cells; same direct titration data; conventional analysis: mean or median of the RFP-positive minus the RFP-negative population; no saturation up to 100 nM, approach called inconsistent by the authors; conditions: one partner purified
# [4] = target: T1, KcsA-Kv1.3 hybrid potassium channel …; assay: flow cytometry on cells; conditions: one partner purified
# [5] = target: T1, KcsA-Kv1.3 hybrid potassium channel …; assay: flow cytometry on cells; same direct titration data; slope of GFP against RFP by linear fit of all RFP-positive events, one-site fit; conditions: one partner purified
molecule,measurement,setting,value
Nc1ccncc1 [4-aminopiridine],inhibition of Kv1 channels,Kv1 channels,inhibit Kv1 channels from the inside of the cell
"CC[C@H](C)[C@@H]1NC(=O)[C@@H]2CSSC[C@@H]3NC(=O)[C@H](CCCCN)NC(=O)[C@H](CCCNC(=N)N)NC(=O)[C@H](CC(N)=O)NC(=O)[C@H](CCSC)NC(=O)[C@H](CSSC[C@H](NC(=O)[C@H](CO)NC(=O)[C@@H](NC(=O)[C@H](CC(N)=O)NC(=O)[C@@H](NC(=O)[C@@H]4CCCN4C(=O)[C@@H](NC(=O)CN)C(C)C)[C@@H](C)CC)C(C)C)C(=O)N[C@@H]([C@@H](C)O)C(=O)NCC(=O)N[C@@H](CO)C(=O)N4CCC[C@H]4C(=O)N[C@@H](CCC(N)=O)C(=O)N2)NC(=O)[C@H](CCCCN)NC(=O)CNC(=O)[C@H](Cc2ccccc2)NC(=O)[C@H](CCCNC(=N)N)NC(=O)[C@H](CCSC)NC(=O)CNC(=O)[C@H](C)NC(=O)[C@H](CC(=O)O)NC(=O)[C@H](CCCCN)NC(=O)[C@H](CSSC[C@@H](C(=O)N[C@H](C(=O)N2CCC[C@H]2C(=O)N[C@@H](CCCCN)C(=O)O)[C@@H](C)O)NC(=O)[C@H](Cc2c[nH]cn2)NC3=O)NC(=O)[C@@H]2CCCN2C(=O)[C@H](CCCCN)NC1=O [AgTx2, agitoxin 2]",Kd or IC50 (literature),Kv1.3; ref 8,6.4 nM
same,Kd or IC50 (literature),Kv1.3; ref 18,0.004 nM
same,Kd or IC50 (literature),Kv1.3; ref 19,0.2 nM
same,Kd,KcsA-Kv1.3,0.21 nM
same,inhibition of binding of labeled ligands by excess unlabeled ligand,KcsA-Kv1.3-RFP [1]; 100 nM unlabeled AgTx2,completely inhibited
same,IC50,"KcsA-Kv1.3-RFP [1]; displacement of 1 nM AgTx2-GFP, Figure 4B curve, read-out: IC50 (displacement of 50% of the labeled ligand)",0.7 nM
same,Kd,KcsA-Kv1.3-RFP [1]; n = 2,0.1 ± 0.02 nM
same,fold by which binding constant is lower than that of the labeled variant,KcsA-Kv1.3-RFP [1]; unlabeled toxin vs its GFP-labeled variant,2–4 times
"CC[C@H](C)[C@H](NC(=O)[C@H](CCC(=O)O)NC(=O)[C@@H](NC(=O)CN)C(C)C)C(=O)N[C@@H](CC(N)=O)C(=O)N[C@H](C(=O)N[C@@H](CCCCN)C(=O)N[C@H]1CSSC[C@@H]2NC(=O)[C@H](CCCCN)NC(=O)CNC(=O)[C@H](Cc3ccccc3)NC(=O)[C@H](CCCNC(=N)N)NC(=O)[C@H](CCSC)NC(=O)CNC(=O)[C@H](C)NC(=O)[C@H](CC(=O)O)NC(=O)[C@H](CCCCN)NC(=O)[C@@H]3CSSC[C@@H](C(=O)N[C@H](C(=O)N4CCC[C@H]4C(=O)N[C@@H](CCCCN)C(=O)O)[C@@H](C)O)NC(=O)[C@H](Cc4c[nH]cn4)NC(=O)[C@H](CSSC[C@H](NC(=O)[C@H](CCC(N)=O)NC(=O)[C@@H]4CCCN4C(=O)[C@H](CO)NC(=O)CNC(=O)[C@H](CO)NC1=O)C(=O)N[C@@H](CC(C)C)C(=O)N[C@@H](CCCCN)C(=O)N1CCC[C@H]1C(=O)N3)NC(=O)[C@H](CCCCN)NC(=O)[C@H](CCCNC(=N)N)NC(=O)[C@H](CC(N)=O)NC(=O)[C@H](CCSC)NC2=O)C(C)C [KTx, kaliotoxin 1]",Kd or IC50 (literature),Kv1.3; ref 21,0.65 nM
same,Kd or IC50 (literature),Kv1.3; ref 22,0.02 nM
same,Kd or IC50 (literature),Kv1.3; ref 23,0.1 to 2 nM
same,Kd,KcsA-Kv1.3,0.78 nM
same,Kd,KcsA-Kv1.3-RFP [1]; n = 3,0.04 ± 0.02 nM
CC(C)/N=c1\cc2n(-c3ccc(Cl)cc3)c3ccccc3nc-2cc1Nc1ccc(Cl)cc1 [clofazimine],inhibition of Kv1 channels,Kv1 channels,inhibit Kv1 channels from the inside of the cell
"AgTx2-GFP: AgTx2 tagged N-terminally with eGFP, moieties separated by a 45-aa linker L1; fluorescent probe ({eGFP-linker L1 (45 aa)}-GVPINVSCTGSPQCIKPCKDAGMRFGKCMNRKCHCTPK; ends and bridges not checked)","Slope, nonspecific binding","KcsA-Kv1.3-RFP [2]; 1 nM labeled toxin + 100 nM AgTx, fitting of all events",0.49
same,"Slope, nonspecific binding","KcsA-Kv1.3-RFP [2]; 1 nM labeled toxin + 100 nM AgTx, fitting of reduced data",0.23
same,Slope (proportional to occupied receptor fraction),"KcsA-Kv1.3-RFP [2]; 1 nM labeled toxin, fitting of all events",0.88
same,Slope (proportional to occupied receptor fraction),"KcsA-Kv1.3-RFP [2]; 1 nM labeled toxin, fitting of reduced data",0.82
same,"Slope, nonspecific binding","KcsA-Kv1.3-RFP [2]; 10 nM labeled toxin + 100 nM AgTx, fitting of all events",0.54
same,Slope (proportional to occupied receptor fraction),"KcsA-Kv1.3-RFP [2]; 10 nM labeled toxin, fitting of all events",0.95
same,Slope (proportional to occupied receptor fraction),"KcsA-Kv1.3-RFP [2]; 10 nM labeled toxin, fitting of reduced data",0.9
same,Kd,KcsA-Kv1.3,0.21 nM
B1,"Kd by the conventional mean/median analysis, which the authors reject",[3],6 nM
same,Kd,[4],0.2 nM
B2,Kd,[4],0.1 nM
B3,Kd,[4],0.04 nM
B4,"Kd by the conventional mean/median analysis, which the authors reject",[3],32 nM
same,Kd,[5],0.86 nM
